# Patent US20100267561A1, “HERBICIDAL PYRIDAZINONE DERIVATIVES” (priority 2007, published 2010)
# Like-named read-outs stand apart in the source and are kept apart here.
# How the values were obtained:
# Assay type in all cases: in vivo
# [1] = tested on: barnyardgrass (Echinochloa crus-galli); assay: Test B flooded paddy test plant response; conditions: Echinochloa crus-galli, read-out: Plant response rating, Barnyardgrass
# Procedure, shortened: (§1)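 Rice, umbrella sedge, ducksalad and barnyardgrass at 2-leaf stage; pots flooded to 3 cm, compounds applied into paddy water, depth held throughout. Greenhouse 13 to 15 days, then visual rating vs untreated controls on 0–100 scale (0 no effect, 100 complete control); dash means no test result.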
# [2] = tested on: umbrella sedge (Cyperus difformis); assay: Test B flooded paddy test plant response; conditions: Cyperus difformis, read-out: Plant response rating, Sedge, Umbrella
# Procedure, shortened: as §1
# rice (Oryza sativa) = assay: Test B flooded paddy test plant response; conditions: Oryza sativa, read-out: Plant response rating, Rice
# Procedure, shortened: as §1
# [3] = tested on: ducksalad (Heteranthera limosa); assay: Test B flooded paddy test plant response; conditions: Heteranthera limosa, read-out: Plant response rating, Ducksalad
# Procedure, shortened: as §1
# [4] = tested on: common (oilseed) sunflower (Helianthus annuus); assay: Test B pre-/postemergence plant response; conditions: Preemergence
# Procedure, shortened: (§2)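 Preemergence and postemergence (plants 2-18 cm, 1- to 4-leaf stage) applications used test chemicals in a non-phytotoxic solvent with surfactant. Plants were held in a greenhouse 13 to 15 days, then rated visually against controls on a 0-100 scale (0 no effect, 100 complete control).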
# [5] = tested on: surinam grass (Brachiaria decumbens); assay: Test B pre-/postemergence plant response; conditions: for pest or weed control at 31 g/ha / pest or weed control at 62 g/ha: Urochloa decumbens, read-out: Plant response rating, Surinam Grass; for pest or weed control at 31 g/ha: 31 g ai/ha; for pest or weed control at 62 g/ha: 62 g ai/ha, 100 complete control
# Procedure, shortened: as §2
# wild oat (Avena fatua) = assay: Test B pre-/postemergence plant response; conditions: for pest or weed control at 31 g/ha / pest or weed control at 62 g/ha: Avena fatua, read-out: Plant response rating, Oat, Wild; for pest or weed control at 31 g/ha: 31 g ai/ha; for pest or weed control at 62 g/ha: 62 g ai/ha, 100 complete control
# Procedure, shortened: as §2
# [6] = tested on: large crabgrass (Digitaria sanguinalis); assay: Test B pre-/postemergence plant response; conditions: for pest or weed control at 31 g/ha: 31 g ai/ha; for pest or weed control at 62 g/ha: 62 g ai/ha, 100 complete control
# Procedure, shortened: as §2
# [7] = tested on: velvetleaf (Abutilon theophrasti); assay: Test B pre-/postemergence plant response; conditions: for pest or weed control at 31 g/ha / pest or weed control at 62 g/ha: Abutilon theophrasti, read-out: Plant response rating, Velvetleaf; for pest or weed control at 31 g/ha: 31 g ai/ha; for pest or weed control at 62 g/ha: 62 g ai/ha, 100 complete control
# Procedure, shortened: as §2
# [8] = tested on: green foxtail (Setaria viridis); assay: Test B pre-/postemergence plant response; conditions: for pest or weed control at 31 g/ha: 31 g ai/ha; for pest or weed control at 62 g/ha: 62 g ai/ha, 100 complete control
# Procedure, shortened: as §2
# [9] = tested on: wheat (Triticum aestivum); assay: Test B pre-/postemergence plant response; conditions: for plant injury at 31 g/ha / plant injury at 62 g/ha: Triticum aestivum, read-out: Plant response rating, Wheat; for plant injury at 31 g/ha: 31 g ai/ha; for plant injury at 62 g/ha: 62 g ai/ha, 100 complete control
# Procedure, shortened: as §2
# [10] = tested on: downy bromegrass (Bromus tectorum); assay: Test B pre-/postemergence plant response; conditions: for pest or weed control at 31 g/ha: 31 g ai/ha
# Procedure, shortened: as §2
# [11] = tested on: morningglory (Ipomoea coccinea); assay: Test B pre-/postemergence plant response; conditions: for pest or weed control at 31 g/ha / pest or weed control at 62 g/ha: Ipomoea, read-out: Plant response rating, Morningglory; for pest or weed control at 31 g/ha: 31 g ai/ha; for pest or weed control at 62 g/ha: 62 g ai/ha, 100 complete control
# Procedure, shortened: as §2
# corn (Zea mays) = assay: Test B pre-/postemergence plant response; conditions: for Corn plant response rating (crop injury, 0 = no effect, 100 = complete kill) at 31 g/ha: 31 g ai/ha; for Corn plant response rating (crop injury, 0 = no effect, 100 = complete kill) at 62 g/ha: 62 g ai/ha, 100 complete control
# Procedure, shortened: as §2
# [12] = Flood (flooded paddy test), 62 g ai/ha, scale 0 to 100, 0 no effect, 100 complete control
# [13] = Flood (flooded paddy test), 125 g ai/ha, scale 0 to 100, 0 no effect, 100 complete control
# [14] = Flood (flooded paddy test), 250 g ai/ha, scale 0 to 100, 0 no effect, 100 complete control
# [15] = Flood, 31 g ai/ha, scale 0 to 100
# [16] = 8 g ai/ha, postemergence, 0-100 scale
# [17] = 16 g ai/ha, postemergence, 0-100 scale
# [18] = Preemergence, 8 g ai/ha, scale 0 to 100 (0 no effect, 100 complete control)
# [19] = Preemergence, 16 g ai/ha, scale 0 to 100
# [20] = post-emergence, Postemergence, scale 0 to 100
# [21] = post-emergence, Postemergence, scale 0 to 100, 0 no effect
# [22] = pre-emergence, Preemergence, scale 0 to 100 (0 no effect, 100 complete control)
# [23] = pre-emergence, Preemergence, 0 to 100 scale, 0 no effect
structure (smiles),measurement,setting,value
"Cc1cc(-c2ccc(Br)cc2)nn1-c1c(OC(=O)C2CC2)cnn(C(=O)C2CC2)c1=O [Compound 80, 5-[3-(4-bromophenyl)-5-methyl-1H-pyrazol-1-yl]-1-(cyclopropylcarbonyl)-1,6-dihydro-6-oxo-4-pyridazinyl cyclopropanecarboxylate]",pest or weed control at 62 g/ha,[1]; [12],0%
same,pest or weed control at 125 g/ha,[1]; [13],0%
same,pest or weed control at 250 g/ha,[1]; [14],0%
same,pest or weed control at 31 g/ha,[1]; [15],0%
same,pest or weed control at 62 g/ha,[2]; [12],0%
same,pest or weed control at 125 g/ha,[2]; [13],0%
same,pest or weed control at 250 g/ha,[2]; [14],0%
same,pest or weed control at 31 g/ha,[2]; [15],0%
same,plant injury at 62 g/ha,rice (Oryza sativa); [12],0%
same,plant injury at 125 g/ha,rice (Oryza sativa); [13],0%
same,plant injury at 250 g/ha,rice (Oryza sativa); [14],0%
same,plant injury at 31 g/ha,rice (Oryza sativa); [15],0%
same,pest or weed control at 62 g/ha,[3]; [12],0%
same,pest or weed control at 125 g/ha,[3]; [13],0%
same,pest or weed control at 250 g/ha,[3]; [14],0%
same,pest or weed control at 31 g/ha,[3]; [15],0%
same,pest or weed control at 31 g/ha,"[4]; Helianthus annuus, pre-emergence, 31 g ai/ha, scale 0 to 100 (0 no effect, 100 complete control), read-out: Plant response rating, Sunflower",0%
same,pest or weed control at 62 g/ha,"[4]; Helianthus annuus, pre-emergence, 62 g ai/ha, 0 to 100 scale, 0 no effect, 100 complete control, read-out: Plant response rating, Sunflower",0%
same,Sunflower plant response rating,"[4]; 8 g ai/ha, scale 0 to 100 (0 no effect, 100 complete control)",0
same,Sunflower plant response rating,"[4]; 16 g ai/ha, scale 0 to 100",0
same,Surinam Grass plant response rating,[5]; [16],95
same,Surinam Grass plant response rating,[5]; [17],100
same,Surinam Grass plant response rating,[5]; [18],0
same,Surinam Grass plant response rating,[5]; [19],65
same,pest or weed control at 31 g/ha,[5]; [20],100%
same,pest or weed control at 62 g/ha,[5]; [21],100%
same,pest or weed control at 31 g/ha,[5]; [22],98%
same,pest or weed control at 62 g/ha,[5]; [23],100%
same,"Oat, Wild plant response rating",wild oat (Avena fatua); [16],85
same,"Oat, Wild plant response rating",wild oat (Avena fatua); [17],100
same,pest or weed control at 31 g/ha,wild oat (Avena fatua); [20],100%
same,pest or weed control at 62 g/ha,wild oat (Avena fatua); [21],100%
same,pest or weed control at 31 g/ha,wild oat (Avena fatua); [22],60%
same,pest or weed control at 62 g/ha,wild oat (Avena fatua); [23],70%
same,"Oat, Wild plant response rating",wild oat (Avena fatua); [18],30
same,"Oat, Wild plant response rating",wild oat (Avena fatua); [19],40
same,"Crabgrass, Large plant response rating",[6]; [16],98
same,pest or weed control at 16 g/ha,"[6]; Digitaria sanguinalis, post-emergence, Postemergence, 16 g ai/ha, scale 0 to 100, read-out: Plant response rating, Crabgrass, Large",100%
same,pest or weed control at 31 g/ha,"[6]; Digitaria sanguinalis, post-emergence, Postemergence, scale 0 to 100, read-out: Plant response rating, Crabgrass, Large",100%
same,pest or weed control at 62 g/ha,"[6]; Digitaria sanguinalis, post-emergence, Postemergence, scale 0 to 100, 0 no effect, read-out: Plant response rating, Crabgrass, Large",100%
same,pest or weed control at 31 g/ha,"[6]; Digitaria sanguinalis, pre-emergence, Preemergence, scale 0 to 100 (0 no effect, 100 complete control), read-out: Plant response rating, Crabgrass, Large",100%
same,pest or weed control at 62 g/ha,"[6]; Digitaria sanguinalis, pre-emergence, Preemergence, 0 to 100 scale, 0 no effect, read-out: Plant response rating, Crabgrass, Large",100%
same,"Crabgrass, Large plant response rating",[6]; [18],0
same,"Crabgrass, Large plant response rating",[6]; [19],98
same,Velvetleaf plant response rating,[7]; [16],0
same,Velvetleaf plant response rating,[7]; [17],0
same,pest or weed control at 31 g/ha,[7]; [20],0%
same,pest or weed control at 62 g/ha,[7]; [21],0%
same,pest or weed control at 31 g/ha,[7]; [22],0%
same,pest or weed control at 62 g/ha,[7]; [23],0%
same,Velvetleaf plant response rating,[7]; [18],0
same,Velvetleaf plant response rating,[7]; [19],0
same,"Foxtail, Green plant response rating",[8]; [16],50
same,"Foxtail, Green plant response rating",[8]; [18],0
same,"Foxtail, Green plant response rating",[8]; [19],98
same,pest or weed control at 16 g/ha,"[8]; Setaria viridis, post-emergence, Postemergence, 16 g ai/ha, scale 0 to 100, read-out: Plant response rating, Foxtail, Green",60%
same,pest or weed control at 31 g/ha,"[8]; Setaria viridis, post-emergence, Postemergence, scale 0 to 100, read-out: Plant response rating, Foxtail, Green",100%
same,pest or weed control at 62 g/ha,"[8]; Setaria viridis, post-emergence, Postemergence, scale 0 to 100, 0 no effect, read-out: Plant response rating, Foxtail, Green",100%
same,pest or weed control at 31 g/ha,"[8]; Setaria viridis, pre-emergence, Preemergence, scale 0 to 100 (0 no effect, 100 complete control), read-out: Plant response rating, Foxtail, Green",100%
same,pest or weed control at 62 g/ha,"[8]; Setaria viridis, pre-emergence, Preemergence, 0 to 100 scale, 0 no effect, read-out: Plant response rating, Foxtail, Green",100%
same,Wheat plant response rating,[9]; [16],35
same,Wheat plant response rating,[9]; [17],85
same,Wheat plant response rating,[9]; [18],0
same,Wheat plant response rating,[9]; [19],20
same,plant injury at 31 g/ha,[9]; [20],95%
same,plant injury at 62 g/ha,[9]; [21],98%
same,plant injury at 31 g/ha,[9]; [22],60%
same,plant injury at 62 g/ha,[9]; [23],95%
same,"Bromegrass, Downy plant response rating",[10]; [16],40
same,pest or weed control at 16 g/ha,"[10]; Bromus tectorum, post-emergence, Postemergence, 16 g ai/ha, scale 0 to 100, read-out: Plant response rating, Bromegrass, Downy",45%
same,pest or weed control at 31 g/ha,"[10]; Bromus tectorum, post-emergence, Postemergence, scale 0 to 100, read-out: Plant response rating, Bromegrass, Downy",90%
same,pest or weed control at 31 g/ha,"[10]; Bromus tectorum, pre-emergence, Preemergence, scale 0 to 100 (0 no effect, 100 complete control), read-out: Plant response rating, Bromegrass, Downy",85%
same,pest or weed control at 62 g/ha,"[10]; Bromus tectorum, pre-emergence, Preemergence, 62 g ai/ha, 0 to 100 scale, 0 no effect, 100 complete control, read-out: Plant response rating, Bromegrass, Downy",85%
same,"Bromegrass, Downy plant response rating",[10]; [18],0
same,"Bromegrass, Downy plant response rating",[10]; [19],30
same,Morningglory plant response rating,[11]; [16],0
same,Morningglory plant response rating,[11]; [17],0
same,pest or weed control at 31 g/ha,[11]; [20],0%
same,pest or weed control at 62 g/ha,[11]; [21],0%
same,pest or weed control at 31 g/ha,[11]; [22],0%
same,pest or weed control at 62 g/ha,[11]; [23],0%
same,Morningglory plant response rating,[11]; [18],0
same,Morningglory plant response rating,[11]; [19],0
same,Corn plant response rating,corn (Zea mays); [16],100
same,Corn plant response rating,corn (Zea mays); [18],20
same,Corn plant response rating,corn (Zea mays); [19],85
same,"Corn plant response rating (crop injury, 0 = no effect, 100 = complete kill) at 16 g/ha","corn (Zea mays); Zea mays, post-emergence, Postemergence, 16 g ai/ha, scale 0 to 100",100%
same,"Corn plant response rating (crop injury, 0 = no effect, 100 = complete kill) at 31 g/ha","corn (Zea mays); Zea mays, post-emergence, Postemergence, scale 0 to 100",100%
same,"Corn plant response rating (crop injury, 0 = no effect, 100 = complete kill) at 62 g/ha","corn (Zea mays); Zea mays, post-emergence, Postemergence, scale 0 to 100, 0 no effect",100%
same,"Corn plant response rating (crop injury, 0 = no effect, 100 = complete kill) at 31 g/ha","corn (Zea mays); Zea mays, pre-emergence, Preemergence, scale 0 to 100 (0 no effect, 100 complete control)",98%
same,"Corn plant response rating (crop injury, 0 = no effect, 100 = complete kill) at 62 g/ha","corn (Zea mays); Zea mays, pre-emergence, Preemergence, 0 to 100 scale, 0 no effect",100%
